Data as given in patent publication US9512128B2 (BAYER CROPSCIENCE AG, priority 2012, dated 2016).
Like-named read-outs stand apart in the source and are kept apart here.

Experiment: log P by HPLC on reversed-phase columns (C 18), EEC directive 79/831 Annex V.A8
Assay type: physicochemical
Details: for logP[a]: method [a]; for logP[b]: method [b]; for chromatographic logP: reversed-phase C18 HPLC column
Protocol: The log P values were determined according to EEC directive 79/831 Annex V.A8 by HPLC (High Performance Liquid Chromatography) on reversed-phase columns (C 18), using the methods below:
[a] The LC-MS determination in the acidic range is carried out at pH 2.7 with 0.1% aqueous formic acid and acetonitrile (contains 0.1% formic acid) as mobile phases; linear gradient from 10% acetonitrile to 95% acetonitrile.
[b] The LC-MS determination in the neutral range is carried out at pH 7.8 using the mobile phases 0.001 molar aqueous ammonium bicarbonate solution and acetonitrile; linear gradient from 10% acetonitrile to 95% acetonitrile.

[1] = pH 2.7, acidic range, pH 2.7, 0.1% aqueous formic acid / acetonitrile, read-out: log P[a]
[2] = pH 7.8, neutral range, pH 7.8, 0.001 molar aqueous ammonium bicarbonate / acetonitrile, read-out: log P[b]

| SMILES | logP[a] | logP[b] | chromatographic logP [1] | chromatographic logP [2] |
| --- | --- | --- | --- | --- |
| O=c1c2sccc2ncn1-c1ccc(C(F)(F)F)c(SCC(F)(F)F)c1 [Compound 104] | 3.09 | 3.07 |  |  |
| O=c1c2sccc2ncn1-c1ccc(C(F)(F)F)c([S+]([O-])CC(F)(F)F)c1 (stereo not drawn) [Compound 107] | 2.44 | 2.40 |  |  |
| Cc1cc(F)c(NC(=O)C(F)(F)F)cc1SCC(F)(F)F [Compound X-1, 2,2,2-Trifluoro-N-{2-fluoro-4-methyl-5-[(2,2,2-trifluoroethyl)sulphanyl]phenyl}acetamide] |  |  | 3.31 |  |
| O=C(Nc1cc(SCC(F)(F)F)c(Cl)cc1F)C(F)(F)F [Compound X-2, N-{4-Chloro-2-fluoro-5-[(2,2,2-trifluoroethyl)sulphanyl]phenyl}-2,2,2-trifluoroacetamide] |  |  | 3.34 | 3.14 |
| O=C(Nc1ccc(Cl)c(SCC(F)(F)F)c1)C(F)(F)F [Compound X-3, N-{4-Chloro-3-[(2,2,2-trifluoroethyl)sulphanyl]phenyl}-2,2,2-trifluoroacetamide] |  |  | 3.46 | 3.41 |
| Nc1cc(SCC(F)(F)F)c(Cl)cc1F [IVa-2, 4-Chloro-2-fluoro-5-[(2,2,2-trifluoroethyl)sulphanyl]aniline] |  |  | 3.02 | 3 |
| Nc1ccc(Cl)c(SCC(F)(F)F)c1 [IVa-3, 4-Chloro-3-[(2,2,2-trifluoroethyl)sulphanyl]aniline] |  |  | 2.64 | 2.69 |
| Nc1cc(SCC(F)(F)F)ccc1Cl [IVa-4, 2-Chloro-5-[(2,2,2-trifluoroethyl)sulphanyl]aniline] |  |  | 3 | 2.95 |
| Nc1cc(SCC(F)(F)F)ccc1F [IVa-5, 2-Fluoro-5-[(2,2,2-trifluoroethyl)sulphanyl]aniline] |  |  | 2.57 | 2.53 |
| Cc1cc(F)c(N)cc1[S+]([O-])CC(F)(F)F (stereo not drawn) [IVb-1, 2-Fluoro-4-methyl-5-[(2,2,2-trifluoroethyl)sulphinyl]aniline] |  |  | 1.77 | 1.72 |
| Cc1cc(F)c(NC(=O)c2cnn(C)c2[N+](=O)[O-])cc1SCC(F)(F)F [N-{2-Fluoro-4-methyl-5-[(2,2,2-trifluoroethyl)sulphanyl]phenyl}-1-methyl-5-nitro-1H-pyrazole-4-carboxamide] |  |  | 3.22 | 3.16 |
| Cc1ccc(B(O)O)cc1SCC(F)(F)F [VIIIa-7, {4-Methyl-3-[(2,2,2-trifluoroethyl)sulphanyl]phenyl}boronic acid] |  |  | 2.3 | 2.24 |
| Cc1cc(F)c(B(O)O)cc1[S+]([O-])CC(F)(F)F (stereo not drawn) [VIIIb-1, {2-Fluoro-4-methyl-5-[(2,2,2-trifluoroethyl)sulphinyl]phenyl}boronic acid] |  |  | 1.38 | 1.11 |

More lines, now with the values ahead:

| logP[a] | logP[b] | chromatographic logP [1] | chromatographic logP [2] | SMILES |
| --- | --- | --- | --- | --- |
| 2.37 | 2.31 |  |  | N#Cc1ccc(-n2cnc3ccsc3c2=O)cc1SCC(F)(F)F [Compound 102] |
| 2.90 | 2.84 |  |  | O=c1c2sccc2ncn1-c1ccc(Cl)c(SCC(F)(F)F)c1 [Compound 103] |
| 3.50 | 3.42 |  |  | Cc1cc(F)c(-n2cnc3ccsc3c2=O)cc1SCC(F)(F)F [Compound 109] |
| 3.56 | 3.41 |  |  | Cc1cc(F)c(-n2cnc3c(Cl)csc3c2=O)cc1SCC(F)(F)F [Compound 110] |
| 4.38 | 4.24 |  |  | Cc1cc(F)c(-n2cnc3c(Cl)c(Cl)sc3c2=O)cc1SCC(F)(F)F [Compound 111] |
| 3.20 | 3.13 |  |  | Cc1cc(F)c(-n2cnc3c(Cl)c(Cl)sc3c2=O)cc1[S+]([O-])CC(F)(F)F (stereo not drawn) [Compound 115] |
|  |  | 2.34 | 2.41 | Cc1cc(F)c(B(O)O)cc1SCC(F)(F)F [VIIIa-1, {2-Fluoro-4-methyl-5-[(2,2,2-trifluoroethyl)sulphanyl]phenyl}boronic acid] |
